Common to all, as to assay: Post-emergence efficacy, glasshouse spray test
Holding throughout (assay type): in vivo

Assay [1] relates to Amaranthus palmeri (AMAPA). Particulars: Amaranthus palmeri, post-emergence, 312 h; Application Rate 500 g/Ha; evaluated after 13 days; read-out: Control of weed species after post-emergence application, AMAPA (100=total damage to plant; 0=no damage to plant). An outline of the steps: (§1)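 Herbicidal effect is given as percent damage on a 0–100 scale, assessed 13 days after spraying plants that had been cultivated 14 days post-sowing. Diluent contained 0.25% or 1% Empicol ESC70 with 1% ammonium sulphate.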

The test system of assay [2] is Chenopodium album (CHEAL). Particulars: Chenopodium album, post-emergence, 312 h; Application Rate 500 g/Ha; evaluated after 13 days; read-out: Control of weed species after post-emergence application, CHEAL (100=total damage to plant; 0=no damage to plant). An outline of the steps:
as §1

Assay [3] relates to Digitaria sanguinalis (DIGSA). The conditions noted are these: Digitaria sanguinalis, post-emergence, 312 h; Application Rate 500 g/Ha; evaluated after 13 days; read-out: Control of weed species after post-emergence application, DIGSA (100=total damage to plant; 0=no damage to plant). The procedure, abridged: as §1
Assay [4] concerns Echinochloa crus-galli (ECHCG). The conditions noted are these: Echinochloa crus-galli, post-emergence, 312 h; Application Rate 500 g/Ha; evaluated after 13 days; read-out: Control of weed species after post-emergence application, ECHCG (100=total damage to plant; 0=no damage to plant). The procedure, abridged:
as §1

The subject of another assay is Eleusine indica (ELEIN). The conditions noted are these: Eleusine indica, post-emergence, 312 h; Application Rate 500 g/Ha; evaluated after 13 days; read-out: Control of weed species after post-emergence application, ELEIN (100=total damage to plant; 0=no damage to plant). An outline of the steps:
as §1

The test system of assay [5] is Euphorbia heterophylla (EPHHL). The conditions noted are these: Euphorbia heterophylla, post-emergence, 312 h; Application Rate 500 g/Ha; evaluated after 13 days; read-out: Control of weed species after post-emergence application, EPHHL (100=total damage to plant; 0=no damage to plant). The procedure, abridged: as §1
The test system of assay [6] is Ipomoea hederacea (IPOHE). The conditions noted are these: Ipomoea hederacea, post-emergence, 312 h; Application Rate 500 g/Ha; evaluated after 13 days; read-out: Control of weed species after post-emergence application, IPOHE (100=total damage to plant; 0=no damage to plant). The procedure, abridged: as §1
A further assay concerns Lolium perenne (LOLPE). Particulars: Lolium perenne, post-emergence, 312 h; Application Rate 500 g/Ha; evaluated after 13 days; read-out: Control of weed species after post-emergence application, LOLPE (100=total damage to plant; 0=no damage to plant). An outline of the steps:
as §1

For the next assay, the system named is Setaia fabei (SETFA). Particulars: Setaria faberi, post-emergence, 312 h; Application Rate 500 g/Ha; evaluated after 13 days; read-out: Control of weed species after post-emergence application, SETFA (100=total damage to plant; 0=no damage to plant). An outline of the steps: as §1

Turning to `O=C(O)CC[n+]1ccc(-c2csnn2)cn1` [Compound A139, 3-[4-(thiadiazol-4-yl)pyridazin-1-ium-1-yl]propanoic acid 2,2,2-trifluoroacetate], the pest or weed control at 500 g/ha was 80% in assay [1]; 70% in assay [2]; 70% in [3]; 60% in assay [4]; 70% with Eleusine indica (ELEIN); 100% in assay [5]. Moreover, the pest or weed control at 500 g/ha in [6] was 60%; with Lolium perenne (LOLPE), 10%; in the assay with Setaia fabei (SETFA) it was 60%.
`O=S(=O)([O-])CCC[n+]1ccc(-c2nnco2)cn1` [Compound A7]: the pest or weed control at 500 g/ha in [1] is 0%; in assay [2], 0%; in assay [3], 30%; in [4], 10%; in the assay on Eleusine indica (ELEIN), 20%; in assay [5], 20%. Also, the pest or weed control at 500 g/ha (in assay [6]; with Lolium perenne (LOLPE); in the assay with Setaia fabei (SETFA)) was 10% throughout.
On to `Cn1ncnc1-c1cc[n+](CCC(=O)O)nc1` [Compound A27], for which the pest or weed control at 500 g/ha in assay [1] was 100%; in [2], 90%; in assay [3], 90%; in assay [4], 90%; in the assay on Eleusine indica (ELEIN), 50%; in assay [5], 90%. The pest or weed control at 500 g/ha in assay [6] came out at 70%; in the assay with Lolium perenne (LOLPE), 30%; with Setaia fabei (SETFA), 90%.
Turning to `N[C@@H](CC[n+]1ccc(-c2ncco2)cn1)C(=O)O` [Compound A110], the pest or weed control at 500 g/ha in assay [1] is 90%; in assay [2], 80%; in [3], 90%; in [4] it was 100%; in the assay on Eleusine indica (ELEIN), 100%; in assay [5], 40%. Besides, the pest or weed control at 500 g/ha was 20% in assay [6], 20% with Lolium perenne (LOLPE) and 80% in the assay with Setaia fabei (SETFA).
As to `CCOC(=O)CC[n+]1ccc(-c2cocn2)cn1` [Compound A20], the pest or weed control at 500 g/ha came to 40% in [1]; 20% in assay [2]; 60% in [3]; 30% in assay [4]; 50% in the assay on Eleusine indica (ELEIN); 10% in assay [5]. Also, the pest or weed control at 500 g/ha in [6] turned out to be 10%; in the assay with Lolium perenne (LOLPE) it was 10%; with Setaia fabei (SETFA), 20%.
In the case of `CNC(=O)c1oc(-c2cc[n+](CCC(=O)O)nc2)nc1C` [Compound A129], the pest or weed control at 500 g/ha in assay [1] came out at 100%; in assay [2] it was 70%; in assay [3], 70%; in assay [4] it was 60%; in the assay on Eleusine indica (ELEIN) it was 90%; in [5] it was 90%. Further, the pest or weed control at 500 g/ha in assay [6] was determined as 80%; with Lolium perenne (LOLPE), 60%; in the assay on Setaia fabei (SETFA) it was 100%.
In the case of `COC(=O)C[n+]1ccc(-c2nccs2)cn1` [Compound A120], the pest or weed control at 500 g/ha in assay [1] stood at 100%; in [2], 50%; in assay [3], 80%; in assay [4] it was 70%; in the assay on Eleusine indica (ELEIN), 90%; in assay [5], 70%. In addition, the pest or weed control at 500 g/ha came out at 10% in assay [6], 0% in the assay on Lolium perenne (LOLPE) and 60% in the assay on Setaia fabei (SETFA).
Turning to `Cn1cnc(-c2cc[n+](CCCC(=O)O)nc2)n1` [Compound A119], the pest or weed control at 500 g/ha in assay [1] came to 100%; in assay [2], 50%; in assay [3], 90%; in [4], 80%; with Eleusine indica (ELEIN), 90%; in assay [5] it was 80%. Also, the pest or weed control at 500 g/ha in assay [6] amounted to 30%; in the assay with Lolium perenne (LOLPE) it was 30%; with Setaia fabei (SETFA), 100%.
`O=C(O)CC[n+]1ccc(-c2ccoc2)cn1` [Compound A43]: the pest or weed control at 500 g/ha in assay [1] stood at 100%; in assay [2], 90%; in assay [3], 20%; in [4], 10%; with Eleusine indica (ELEIN), 10%; in assay [5], 80%. For the same compound, the pest or weed control at 500 g/ha in [6] amounted to 20%; in the assay with Lolium perenne (LOLPE), 0%; with Setaia fabei (SETFA) it was 10%.
With `COc1cc(-c2cc[n+](CCS(=O)(=O)[O-])nc2)sn1` [Compound A34], the pest or weed control at 500 g/ha in [1] stood at 60%; in assay [2], 20%; in assay [3], 30%; in assay [4] it was 50%; in the assay on Eleusine indica (ELEIN), 20%; in assay [5], 30%. Besides, the pest or weed control at 500 g/ha in assay [6] is 20%; in the assay on Lolium perenne (LOLPE), 20%; in the assay with Setaia fabei (SETFA), 40%.
With `O=C(O)CC[n+]1ccc(-c2ncsn2)cn1` [Compound A142, 3-[4-(1,2,4-thiadiazol-3-yl)pyridazin-1-ium-1-yl]propanoic acid 2,2,2-trifluoroacetate], the pest or weed control at 500 g/ha in assay [1] came out at 100%; in [2], 90%; in assay [3], 100%; in assay [4], 100%; in the assay with Eleusine indica (ELEIN), 100%; in assay [5] it was 100%. In addition, the pest or weed control at 500 g/ha in [6] is 30%; in the assay with Lolium perenne (LOLPE), 90%; in the assay with Setaia fabei (SETFA), 90%.
Regarding `O=C(O)CC[n+]1ccc(-c2nc(C(F)(F)F)co2)cn1` [Compound A56], the pest or weed control at 500 g/ha in assay [1] is 100%; in [2] it was 80%; in [3] it was 70%; in assay [4], 90%; in the assay with Eleusine indica (ELEIN), 80%; in assay [5], 90%. For the same compound, the pest or weed control at 500 g/ha in assay [6] is 30%; in the assay with Lolium perenne (LOLPE) it was 50%; in the assay on Setaia fabei (SETFA), 80%.
Turning to `O=S(=O)([O-])CC[n+]1ccc(-c2nc(C(F)(F)F)cs2)cn1` [Compound A18], the pest or weed control at 500 g/ha came to 90% in [1]; 10% in [2]; 30% in assay [3]; 30% in assay [4]; 30% in the assay with Eleusine indica (ELEIN); 50% in assay [5]. Also, the pest or weed control at 500 g/ha in assay [6] came to 30%; in the assay on Lolium perenne (LOLPE) it was 40%; with Setaia fabei (SETFA), 40%.
Take `CC(C)(CC(=O)O)[n+]1ccc(-c2ncco2)cn1` [Compound A107]: the pest or weed control at 500 g/ha is 100% in assay [1]; 50% in assay [2]; 70% in assay [3]; 40% in assay [4]; 30% with Eleusine indica (ELEIN); 30% in [5]. Moreover, the pest or weed control at 500 g/ha in assay [6] stood at 20%; in the assay with Lolium perenne (LOLPE), 20%; in the assay on Setaia fabei (SETFA), 50%.
